Source: ChEMBL document CHEMBL1201862, “PubChem BioAssay data set” (2004)
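Values below derive from 48-hour exposures of cells grown in 96-well plates, with endpoints linearly interpolated between the two concentrations bracketing the appropriate inhibition level. Here, GI50 denotes the concentration required for 50% inhibition of growth.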 Activity calls are given as the source filed them. No stated cut-off is given here; in the data, active = GI50 up to about 1.1 µM and inactive = higher.

Assays:
Test in all cases: growth of human tumour cells (NCI), 48 h
A498 = test system: A498
EKVX = test system: EKVX
HOP-92 = test system: HOP-92
Hs-578T = test system: Hs-578T
MOLT-4 = test system: MOLT-4
NCI-H522 = test system: NCI-H522
NCI/ADR-RES = test system: NCI/ADR-RES
OVCAR-3 = test system: OVCAR-3
OVCAR-4 = test system: OVCAR-4
OVCAR-8 = test system: OVCAR-8
SF-295 = test system: SF-295
SNB-19 = test system: SNB-19
SNB-75 = test system: SNB-75
SR = test system: SR
TK-10 = test system: TK-10
UO-31 = test system: UO-31
HOP-62 = test system: HOP-62
NCI-H226 = test system: NCI-H226
PC-3 = test system: PC-3

Measured: GI50

O=C(O)CCCc1nc2c(n1-c1ccccc1)C(=O)c1ccccc1C2=O
inactive: A498 > 100 µM | EKVX 62.8 µM | HOP-92 49 µM | Hs-578T > 100 µM | MOLT-4 68.4 µM | NCI-H522 14.2 µM | NCI/ADR-RES > 100 µM | OVCAR-3 33.6 µM | OVCAR-4 23.9 µM | OVCAR-8 53.5 µM | SF-295 60 µM | SNB-19 > 100 µM | SNB-75 43.5 µM | SR 77.8 µM | TK-10 > 100 µM | UO-31 > 100 µM

COc1ccc(-c2c(C#N)c(O)n(C3OC(CO)C(O)C(O)C3O)c(=S)c2C#N)cc1 (stereo not given)
inactive: A498 > 100 µM | HOP-62 > 100 µM | MOLT-4 > 100 µM | NCI-H226 > 100 µM | NCI-H522 > 100 µM | NCI/ADR-RES > 100 µM | OVCAR-3 > 100 µM | OVCAR-8 > 100 µM | PC-3 > 100 µM | SF-295 > 100 µM | SNB-19 > 100 µM | SNB-75 > 100 µM | SR > 100 µM | TK-10 > 100 µM | UO-31 > 100 µM

COC(=O)[C@@H](NS(=O)(=O)CC12CCC(CC1)C2(C)C)C(C)(C)C
inactive: A498 > 100 µM | EKVX > 100 µM | HOP-92 > 100 µM | Hs-578T > 100 µM | MOLT-4 4.85 µM | NCI-H226 > 100 µM | NCI-H522 > 100 µM | NCI/ADR-RES > 100 µM | OVCAR-3 > 100 µM | OVCAR-4 > 100 µM | OVCAR-8 > 100 µM | SF-295 > 100 µM | SNB-19 > 100 µM | SNB-75 > 100 µM | SR 23.3 µM | TK-10 > 100 µM | UO-31 > 100 µM

NC(=O)CCC(CCC(N)=O)(CCC(N)=O)[N+](=O)[O-]
inactive: EKVX > 100 µM | HOP-92 > 100 µM | Hs-578T > 100 µM | MOLT-4 > 100 µM | NCI-H226 25.4 µM | NCI-H522 65.9 µM | NCI/ADR-RES > 100 µM | OVCAR-8 > 100 µM | PC-3 > 100 µM | SF-295 > 100 µM | SNB-19 60.8 µM | SNB-75 > 100 µM | TK-10 > 100 µM | UO-31 > 100 µM

CC1=NC(=Cc2cccc(Cl)c2)C(=O)N1n1c(-c2ccccc2)nc2ccccc2c1=O
inactive: A498 26.4 µM | EKVX 21.2 µM | HOP-62 24.5 µM | Hs-578T 24.5 µM | MOLT-4 27.9 µM | NCI-H226 90.4 µM | NCI-H522 17.5 µM | OVCAR-8 43.4 µM | PC-3 31.3 µM | SF-295 35.7 µM | SNB-19 59.2 µM | SNB-75 35.9 µM | SR 25.2 µM | TK-10 50.6 µM | UO-31 39 µM

COC(=O)C1(C(=O)OC)N=C(C)OC1c1ccccc1O (stereo not given)
inactive: A498 > 100 µM | EKVX > 100 µM | HOP-62 > 100 µM | HOP-92 > 100 µM | MOLT-4 > 100 µM | NCI-H226 > 100 µM | NCI/ADR-RES > 100 µM | OVCAR-3 > 100 µM | OVCAR-4 > 100 µM | OVCAR-8 > 100 µM | PC-3 > 100 µM | SF-295 > 100 µM | SNB-19 > 100 µM | SNB-75 > 100 µM | SR > 100 µM | TK-10 > 100 µM | UO-31 > 100 µM

C=C1[C@@H](OC(C)=O)[C@H]2[C@@H](OC(C)=O)[C@@](C)(OC(C)=O)C[C@]2(OC(C)=O)C(=O)[C@@H](C)/C=C/C(C)(C)C(=O)C[C@H]1OC(C)=O
inactive: EKVX 83.9 µM | HOP-62 > 100 µM | HOP-92 79.3 µM | MOLT-4 > 100 µM | NCI-H226 > 100 µM | NCI-H522 45.3 µM | NCI/ADR-RES 88.1 µM | OVCAR-3 47.2 µM | OVCAR-4 35.2 µM | OVCAR-8 > 100 µM | PC-3 > 100 µM | SF-295 > 100 µM | SNB-19 > 100 µM | SNB-75 > 100 µM | TK-10 > 100 µM | UO-31 > 100 µM
